Results reported in patent US9888679B2, “Protection of progenitor cells and regulation of their differentiation” (Proteobioactives Pty Ltd, priority 2007, dated 2018).

Key:
[1] = system: murine Progenitor Cells (C3H10T1/2 cells); assay: DNA synthesis (3H-Thymidine) in 2 day monolayer cultures; format: cell-based; settings: murine progenitor cell line, FIG. 10
Excerpt: FIG. 10. A bar graph of the concentration dependent effects of Pentosan Polysulfate (PPS) on DNA synthesis by murine Progenitor Cells (C3H10T1/2 cells) grown in monolayer cultures for 2 days as determined by the incorporation of ^3H-Thymidine into macromolecular DNA.

Primary progenitor cells = assay: Differentiation in adipogenic media: adipocyte formation, Oil Red O; format: cell-based, human; settings: FIG. 8; for differentiation of progenitor cells into adipocytes: adipogenic media, 1.0, 5.0, 10 micrograms/mL
Protocol: FIG. 8. The Effects of Pentosan Polysulfate (PPS) on Human progenitor cell Differentiation: Adipocyte Formation. Primary progenitor cells were cultured in 96 well plates in non-adipogenic growth media (media control) or under adipogenic conditions (0.5 mM methylisobutylmethylxanthine, 0.5 μM hydrocortisone, and 60 μM indomethacin) in the presence of PPS at the indicated concentrations. On day 28, the presence of lipid laden adipocytes was determined using the lipophilic dye Oil Red O. The relative amount of solubilised lipid per μg of DNA/well was determined following the assessment of the total amount of DNA per well using a fluorogenic DNA stain (Hoeshst 33258). […] (A) Phase-contrast photomicrographs of Oil Red O labeled adipocytes at ×20 magnification.
The conditions required for the development of lipids from human bone marrow stromal cells in vitro have been previously described (Gimble J. Marrow stromal adipocytes. In: Marrow stromal cell culture. J N Beresford, Owen, M. E., ed. Cambridge University Press, Cambridge, pp 67-87 (1998)). Briefly, human progenitor cells were seeded into 96-well plates at a density of 8×10^3 cells per well in complete alpha-MEM growth media and were allowed to reach >90% confluence prior to addition of inductive media. Cells were cultured in adipogenic-inductive media comprised of complete alpha-MEM supplemented with 0.5 mM 3-Isobutyl-1-methyl-xanthine (IBMX), 60 microM Indomethacin, and 0.5 microM Hydrocortisone in the presence of a titration of PPS (0.0, 1.0, 5.0, 10 micrograms/mL). The inductive media was changed twice weekly for a period of 4 weeks. Cells were stained for the presence of lipid using Oil Red ‘O’.
Cells were cultured as described above and gently rinsed in 1×PBS (pH7.4) to avoid disruption of the cell monolayer. Cells were fixed in phosphate buffered formalin for 15 minutes at RT. The fixative was subsequently removed and lipid stained by adding 100 microL of freshly filtered Oil Red O (3 mg/mL; MP Biomedicals, Australia) for ≧2 hours at RT. […]

[2] = system: murine ATDC5 progenitor cells; assay: Proteoglycan biosynthesis (35S-GAG) in monolayer cultures, maintenance or differentiation media; format: cell-based
Excerpt: FIG. 21. A bar graph of the concentration dependent effects of rhNC4 (batch PBA-1202P) expressed by K. lactis, in the absence (maintenance media, MM) and presence of insulin (10 micrograms/mL) (differentiation media, DM), on the biosynthesis of Proteoglycans (PGs) as determined by the incorporation of radioactively labelled sulfate into the sulfated glycosaminoglycans (^35S-GAG) of PGs after 3 day culture with Murine ATDC5 progenitor cells. The data was expressed as % change relative to control cultures that contained no rhNC4. P<0.05 was statistically significant relative to control cultures.
FIG. 24. A bar graph of the concentration dependent effects of combinations of rhNC4 (batch PBA-1202P) and Pentosan Polysulfate (PPS) on the biosynthesis of 35S-PGs by monolayer cultures of Murine ATDC5 progenitor cells. Data is expressed relative to control (maintenance media, MM) which was taken as 100%.
FIG. 31. A bar graph of the concentration dependent effects of rhNC4 (batch PBA-1202P) expressed by K. lactis, in the absence (maintenance media, MM) and presence of insulin (10 micrograms/mL) (differentiation media, DM), on the biosynthesis of Proteoglycans (PGs) as determined by the incorporation of radioactively labelled sulfate into the sulfated glycosaminoglycans (^35S-GAG) of PGs after 3 day culture with Murine ATDC5 progenitor cells. The data was expressed as % change relative to control cultures that contained no rhNC4. P<0.05 was statistically significant relative to control cultures.
FIG. 32. A bar graph of the concentration dependent effects of Pentosan Polysulfate (PPS), in the presence of insulin (10 micrograms/mL), on the biosynthesis of Proteoglycans PGs) as determined by the incorporation of radioactively labelled sulfate into the sulfated glycosaminoglycans (^35S-GAG) of PGs after 3 day culture with Murine ATDC5 progenitor cells. The data was expressed as ^35S-GAG radioactivity as counts per minute (CPM) and decays per minute (DPM) relative to control cultures that contained no PPS. P<0.05 was statistically significant relative to control cultures.
Murine Progenitor cells (cell lines C3H10T1/2 or ATDC5) purchased from RIKEN Cell Bank (Tsukuba, Japan) or human immunoselected Stro-1+ Progenitor cells (Mesoblast Ltd, Melbourne, Australia) were seeded into 50 mL plastic culture flasks containing 1:1 high glucose DMEM/Ham's F-12 medium (Invitrogen) supplemented with 10% FBS (Sigma) and incubated at 37° C., in 5% CO2. […] The experiments were generally terminated after 48 hours incubation when proteoglycan biosynthesis was determined by measuring the incorporation of ^35SO4 into the glycosaminoglycans (^35S-GAGs) as described below.
The data was expressed as % change relative to control cultures that contained no rhNC4. […]

Substance: pentosan polysulfate [PPS]
- cell division (3H-Thymidine incorporation into DNA) [1]: Marked stimulation of cell division
- adipocyte number (Oil Red O lipid per μg DNA) (Primary progenitor cells; adipogenic conditions, day 28, PPS in excess 1 ug/ml, p<0.01, ANOVA): statistically significant increase in adipocyte number
- differentiation of progenitor cells into adipocytes (Primary progenitor cells): upregulation seen at all concentrations
- differentiation of progenitor cells into adipocytes (Primary progenitor cells; listed as polysulfated polysaccharides): showed differentiated to adipocytes
- PG synthesis ([2]; PPS in the presence of insulin (10 micrograms/mL), 3 day culture, FIG. 32): concentration dependent stimulation of PG synthesis
- biosynthesis of 35S-PGs ([2]; PPS, monolayer, FIG. 24): effect of PPS increases with concentration
